Test results reported in patent US20240342168A1, “SMALL MOLECULE INHIBITORS FOR ANTI-CANCER COMBINATION THERAPY” (UNIVERSITY OF CAPE TOWN, priority 2021, published 2024).

Experiments:
Type in all cases: cell-based
HeLa cells [1] = test: Drug washout experiments (MTT)
Description: Cells were plated in 96-well plates and subjected to 2 h INI-43 pre-treatment followed by cisplatin treatment, with or without removing INI-43 from the media, for 48 h. Following treatment, MTT (Sigma) was added and 4 h later crystals solubilized using 10% SLS in 0.01 M HCl.

Kyse 30 = test: Combination index (CI) determination, Chou-Talalay method; conditions: Kyse 30 oesophageal cancer cell line
Description: (§1) To elucidate the nature of the combined use of INI-43 and cisplatin, the Chou-Talalay method was adopted (Chou T C, Talalay P. Quantitative analysis of dose-effect relationships: the combined effects of multiple drugs or enzyme inhibitors. Adv Enzym Regul. 1984; 22:27-55). Cell viability was determined after 48-h treatment at fixed INI-43 to cisplatin ratios of 1:3, 1:4 and 1:5 (Table 1 below). Cell viability was converted to fraction affected (Fa) and CI calculated using CompuSyn software (ComboSyn, Inc.).

Mel 80 = test: as above; conditions: Mel 80 cervical cancer cell line
Description: as §1

SiHa cells [2] = test: as above; conditions: INI-43 to cisplatin ratios 1:3, 1:4 and 1:5, at Fa>0.2, 2 h pre-incubation, 48 h
Description: as §1

CaSki = test: MTT cell viability / cisplatin IC50 determination; conditions: for cell viability, combination treatment vs cisplatin-only: 5 μM INI-43 pre-treatment, fixed cisplatin concentrations, MTT 48 h
Description: (§2) HeLa, SiHa, CaSki and C33A cell lines were purchased from the American Type Culture Collection (ATCC) and maintained in Dulbecco's Modified Eagle's Medium (DMEM, Gibco, Life Technologies) containing 10% Fetal Bovine Serum (Gibco, Life Technologies), supplemented with 100 U/mL penicillin and 100 μg/mL streptomycin. Cells were cultured at 37° C. in a humidified chamber with 5% CO2. All cell lines were authenticated by DNA profiling using the Cell ID System (Promega, Madison, WI, USA).
(§3) Cells were plated in 96-well plates and subjected to single or CT (2 h INI-43 pre-treatment followed by cisplatin treatment, without removing IN1-43 from the media) for 48 h. Following treatment, MTT (Sigma) was added and 4 h later crystals solubilized using 10% SLS in 0.01 M HCl. Absorbencies were measured at 595 nm and IC50 values determined via plotting [Fa/(1-Fa)] in log scale against log cisplatin concentration, where:
(§4) The half inhibitory concentration was calculated using the formula IC50=10^x-intercept

C33A = test: MTT cell viability / cisplatin IC50 determination
Description: as §2, §3, §4

HeLa = test: MTT cell viability / cisplatin IC50 determination; conditions: for cell viability, combination treatment vs cisplatin-only: 5 μM INI-43 pre-treatment, fixed cisplatin concentrations, MTT 48 h
Description: as §2, §3, §4

SiHa = test: MTT cell viability / cisplatin IC50 determination; conditions: for cell viability, combination treatment vs cisplatin-only: 5 μM INI-43 pre-treatment, fixed cisplatin concentrations, MTT 48 h
Description: as §2, §3, §4

γH2AX = test: Western blot of phosphorylated Histone 2AX (DNA damage marker); conditions: INI-43-cisplatin CT, 24 h, concentration dependent
Description: (§5) For protein extraction, cells were washed with PBS and lysed using RIPA buffer (50 mM Tris-CI, pH 7.4, 150 mM NaCl, 1% (w/v) sodium deoxycholate, 0.1% (v/v) SDS, 1% (v/v) Triton X-100, 2 mM EGTA, 2 mM EDTA, 50 mM NaF, 5 mM Na2P2O7, 1× complete protease inhibitor cocktail (Roche) and 0.1 M Sodium Orthovanadate). For PARP cleavage analysis, dead cells were collected by centrifugation and combined with live cell lysates. Lysates were sonicated, centrifuged, and the supernatant quantified using the BCA Protein Assay Kit (Pierce, Thermo Scientific) according to the manufacturer's instructions. Proteins were subjected to Western blot analysis using the following antibodies: rabbit anti-Kpnβ1 (H-300, sc-11,367, Santa Cruz), rabbit anti-β-tubulin (H-235, sc-9104, Santa Cruz), rabbit anti-PARP1/2 antibody (H-250, sc-7150, Santa Cruz), mouse anti-GAPDH (0411, sc-47,724, Santa Cruz), rabbit anti-p21 (H-164, sc-756, Santa Cruz), rabbit anti-Mcl-1 (H-260, sc-20,679, Santa Cruz), mouse anti-cyclin D1 (HD11, sc-246, Santa Cruz), rabbit anti-c-Myc (N-262, sc-764, Santa Cruz), mouse anti-p53 (DO-7, M7001, DakoCytomation), mouse anti-XIAP (610,763, BD Biosciences), and rabbit anti-phospho-Histone H2AX (γH2AX, Ser139, 20E3, #9718, Cell Signal).

HeLa cells [3] = test: Caspase-3/7 assay (Caspase-Glo 3/7); conditions: INI-43 pre-treatment plus cisplatin, 48 h
Description: (§6) Cells were subjected to single or CT for 48 h, and caspase-3/7 activity monitored using the Promega Caspase-Glo^R 3/7 assay, according to the manufacturer's instructions. Luminescence was measured using the Veritas™ microplate luminometer (Promega) and results standardized to viable cells in each treatment as determined by MTT assays performed in parallel.

SiHa cells [4] = test: Caspase-3/7 assay (Caspase-Glo 3/7); conditions: INI-43 pre-treatment plus cisplatin, 48 h
Description: as §6

HeLa cells [5] = test: PARP cleavage by Western blot
Description: as §5

SiHa cells [6] = test: PARP cleavage by Western blot
Description: as §5

[7] = 2 h INI-43 pre-treatment then cisplatin 48 h, vs no pre-treatment
[8] = INI-43 pre-treatment plus cisplatin

## CN(C)CCCn1c(N)c(-c2nc3ccccc3[nH]2)c2nc3ccccc3nc21 [INI-43]
HeLa cells [1]; 2 h INI-43, removed before cisplatin treatment (washout 1 and 2), 48 h
  cell viability, combination treatment vs cisplatin alone after INI-43 washout: significantly reduced cell viability
HeLa cells [1]; HeLa cells, vs INI-43 still present
  enhancement of cell death upon combination treatment after INI-43 washout: slightly reduced
Kyse 30
  nature of INI-43 and cisplatin combination (CI): synergism
Mel 80
  nature of INI-43 and cisplatin combination (CI): synergism
SiHa cells [2]
  combination index (CI) values: below 1
CaSki; 5 μM INI-43
  cell viability, INI-43 on its own: did not affect cell viability
CaSki
  cell viability, combination treatment vs cisplatin-only: significantly decreased cell viability
CaSki; listed as Compound A
  cell viability, combination treatment vs cisplatin-only: increased cisplatin sensitivity
CaSki; [7]
  change in cisplatin IC50: small reduction
C33A; 5 μM INI-43
  cell viability, INI-43 on its own: did not affect cell viability
C33A; 5 μM INI-43 pre-treatment, fixed cisplatin concentrations, MTT 48 h
  cell viability, combination treatment vs cisplatin-only: no change in cell viability
C33A; [7]
  change in cisplatin IC50: no change
HeLa; 5 μM INI-43
  cell viability, INI-43 on its own: did not affect cell viability
HeLa
  cell viability, combination treatment vs cisplatin-only: significantly decreased cell viability
HeLa; listed as Compound A
  cell viability, combination treatment vs cisplatin-only: increased cisplatin sensitivity
HeLa; [7]
  decrease in cisplatin IC50: 44%
SiHa; 5 μM INI-43
  cell viability, INI-43 on its own: did not affect cell viability
SiHa
  cell viability, combination treatment vs cisplatin-only: significantly decreased cell viability
SiHa; listed as Compound A
  cell viability, combination treatment vs cisplatin-only: increased cisplatin sensitivity
SiHa; [7]
  decrease in cisplatin IC50: 46%
γH2AX
  γH2AX levels: increased
HeLa cells [3]
  increase in caspase-3/7 activation, combination vs cisplatin only: 3.6 fold
SiHa cells [4]
  increase in caspase-3/7 activation, combination vs cisplatin only: 2.8 fold
HeLa cells [5]; 5 μM INI-43
  apoptosis (PARP cleavage), INI-43 on its own: negligible apoptosis
HeLa cells [5]; [8]
  PARP cleavage, combination treated vs cisplatin only: enhanced PARP cleavage
SiHa cells [6]; 5 μM INI-43
  apoptosis (PARP cleavage), INI-43 on its own: negligible apoptosis
SiHa cells [6]; [8]
  PARP cleavage, combination treated vs cisplatin only: enhanced PARP cleavage
